Here are results for two compounds from patent US7223403B2, “Method to prepare compositions comprising yeast treated with electromagnetic energy” (Ultra Biotech Limited, priority 2003, dated 2007).

Data set [1] concerns kun ming murine brain cancer cell line B22. Conditions: 2BCNU 1.2 mg/kg/day s.c.; for Number of live animals remaining in the groups after 30 days of treatment: 30 mice per group. On the procedure:
The survival time of mice after tumor injection and treatment was studied.
(§1) The biological composition comprising 10^8 cells per ml of activated and conditioned yeast cells of the strain Saccharomyces cerevisiae Hansen strain AS2.501 was prepared by the methods described in Section 5.1 and subsections therein.
The animals were prepared in a similar manner as described in Section 6.1.
The mice injected with tumor cells were immediately divided into 4 experimental groups of ten mice per group and one control group. The four experimental groups were triplicated (i.e., using a total of 120 mice in the experimental groups). In group 2AY, the mice received 0.5 ml of the biological composition once per day. In group 2NY, the mice received 0.5 ml of the untreated yeast cells once per day. In group 2BCNU, the mice were injected subcutaneously with 1.2 mg of chloroethylnitrosourea (BCNU) per kg body weight per day. In group 2CK1, the mice received 0.5 ml of physiological saline once per day.
The mice received the biological compositions, untreated yeast cells, BCNU or saline on the same day as the tumor cells were transplanted. The mice in group 2CK2 also started receiving saline on the same day as the other four groups. The biological compositions, untreated yeast cells and saline were administered orally by a feeding tube and the BCNU by subcutaneous injection for 30 consecutive days. The mice were observed over 6 months from the day of tumor inoculation and survival was recorded. The weight of the mice and the weight of the tumor were determined by standard techniques.

Data set [2] has the same test system. The data set is described as follows: kun ming mouse model of human brain cancer, growth of the tumor (Example 6). Conditions: B22 tumor-bearing mice, 30 consecutive days of treatment, sacrificed on 31st day; AY/NY 0.3 ml oral once per day, BCNU 0.8 mg/kg/day s.c. As to the method: as §1
The mice injected with tumor cells were immediately divided into 4 experimental groups of ten mice per group and one control group. The four experimental groups were triplicated (i.e., using a total of 120 mice in the experimental groups).
The mice received the biological compositions, untreated yeast cells, BCNU or saline on the same day as the tumor cells were transplanted. The mice in group CK2 also started receiving saline on the same day as the other four groups. The biological compositions, untreated yeast cells and saline were administered orally by a feeding tube and the BCNU by subcutaneous injection for 30 consecutive days. […] The weight of the mice and the weight of the tumor were determined by standard techniques.

Data set [3] relates to Wistar King rat brain cancer cell line WKS-1. The note with it: 2VCR 4.5 mg/kg/day i.v.; for Number of live animals remaining in the groups after 30 days of treatment: 30 rats per group. As to the method: The survival time of rats after tumor injection and treatment was studied.
as §1
The animals were prepared in a similar manner as described in Section 8.1.
The rats injected with tumor cells were immediately divided into 4 experimental groups of ten rats per group and one control group. The four experimental groups were triplicated (i.e., using a total of 120 rats in the experimental groups). In group 2AY, the rats received 1.2 ml of the biological composition once per day. In group 2NY, the rats received 1.2 ml of the untreated yeast cells once per day. In group 2VCR, the rats were injected intravenously with 4.5 mg of […] (VCR) per kg body weight per day. In group 2CK1, the rats received 1.2 ml of physiological saline once per day.
The rats received the biological compositions, untreated yeast cells, VCR, or saline on the same day as the tumor cells were transplanted. The rats in group 2CK2 also started receiving saline on the same day as the other four groups. The biological compositions, untreated yeast cells and saline were administered orally by a feeding tube and the VCR by intravenous injection for 30 consecutive days. The rats were observed over 6 months from the day of tumor inoculation and survival was recorded. The weight of the rats and the weight of the tumor were determined by standard techniques.

Data set [4] has the same test system. The data set is described as follows: Wistar rat model of human brain cancer, growth of the tumor (Example 8). In kind it is in vivo. The note with it: WKS-1 tumor-bearing rats, 30 consecutive days of treatment, sacrificed on 31st day; AY/NY 0.8 ml oral once per day, VCR 3 mg/kg/day i.v. As to the method: The growth of the tumor in the rats was studied.
About 2×10^7 viable tumor cells of the Wistar King rat brain cancer type WKS-1 (obtainable from the Shanghai Medical University, Shanghai, China) in about 0.4 ml culture suspension were injected subcutaneously into the animals.
In group AY, the rats received 0.8 ml of the biological composition once per day. In group NY, the rats received 0.8 ml of the untreated yeast cells once per day. […] In group CK1, the rats received 0.8 ml of physiological saline once per day.
On the 31st day from tumor inoculation, the rats were sacrificed.

Setting [5] is: mice that survived, observed over 6 months, 2AY/2NY 0.5 ml oral per day, 30 days.
Where [6] appears, read: rats that survived, observed over 6 months, 2AY/2NY 1.2 ml oral per day, 30 days.

SMILES strings stand for the structures. Where two headings read alike, the source gives them in different places.

Consider `O=NN(CCCl)C(=O)NCCCl` [BCNU, chloroethylnitrosourea], for which the “Number of live animals remaining in the groups after 30 days of treatment” value (“Number of live animals remaining” for short) in data set [1] (0 month after cessation of treatment, 2AY/2NY 0.5 ml oral per day) is 30; in data set [1] (1 month after cessation of treatment, 2AY/2NY 0.5 ml oral per day), 21; in data set [1] (2 months after cessation of treatment, 2AY/2NY 0.5 ml oral per day), 15; in data set [1] (3 months after cessation of treatment, 2AY/2NY 0.5 ml oral per day), 4; in data set [1] (4 months after cessation of treatment, 2AY/2NY 0.5 ml oral per day) it was 0; in data set [1] (5 months after cessation of treatment, 2AY/2NY 0.5 ml oral per day), 0. Further, the “Number of live animals remaining” value in data set [1] (6 months after cessation of treatment, 2AY/2NY 0.5 ml oral per day) came to 0. The “survival outcome during the experiment” value in data set [1] (2NY 0.5 ml oral per day, 30 days, observed over 6 months) was “all died during the experiment”. Moreover, the “mean weight of mice and standard deviation” value in data set [1] (setting [5]) is listed as “all animals dead”; in data set [2], 18.4 ± 3.4 g. Further, the “mean weight of tumor nodules and standard deviation” value in data set [1] (setting [5]) was “all animals dead”; in data set [2] it was 1.02 ± 0.52 mg.

As for `CC[C@]1(O)C[C@@H]2CN(CCc3c([nH]c4ccccc34)[C@@](C(=O)OC)(c3cc4c(cc3OC)N(C)[C@H]3[C@@](O)(C(=O)OC)[C@H](OC(C)=O)[C@]5(CC)C=CCN6CC[C@]43[C@@H]65)C2)C1` [VCR, vinblastine], the “Number of live animals remaining” value in data set [3] (0 month after cessation of treatment, 2AY/2NY 1.2 ml oral per day) is recorded as 30; in data set [3] (1 month after cessation of treatment, 2AY/2NY 1.2 ml oral per day), 30; in data set [3] (2 months after cessation of treatment, 2AY/2NY 1.2 ml oral per day), 30; in data set [3] (3 months after cessation of treatment, 2AY/2NY 1.2 ml oral per day) it was 17; in data set [3] (4 months after cessation of treatment, 2AY/2NY 1.2 ml oral per day), 7; in data set [3] (5 months after cessation of treatment, 2AY/2NY 1.2 ml oral per day), 3. In addition, the “Number of live animals remaining” value in data set [3] (6 months after cessation of treatment, 2AY/2NY 1.2 ml oral per day) came to 0. Besides, the “survival outcome during the experiment” value in data set [3] (2NY 1.2 ml oral per day, 30 days, observed over 6 months) is given as “all died during the experiment”. The “mean weight of rats and standard deviation” value in data set [3] (setting [6]) is recorded as “all animals dead”; in data set [4] it was 188.3 ± 8.3 g. Moreover, the “mean weight of tumor nodules and standard deviation” value in data set [3] (setting [6]) is on record as “all animals dead”; in data set [4], 2.87 ± 2.54 g.
